These results are taken from BindingDB's records for patent US20240148821 (Chugai Seiyaku Kabushiki Kaisha, 2024).

The target of the experiment is GTPase KRas (G12D) and Son of Sevenless Homolog 1 (SOS) (Homo sapiens, UniProt P01116, G12D). The experiment can be described thus: AlphaScreen Assay.

Numbered stars: 1 amine (or outer) side, 2 acyl side, 3 side chain; on linkers, the order of the positions; unused ones are H or OH. Bridge positions count the residues as written; N and C are the ends. Square brackets hold non-standard residues; d marks the D form. Peptide text beside a SMILES is read from it. * marks the point of attachment. ξ: configuration not given here. hPhe(3-Cl-4-CF3) = N[C@@H](CCc1ccc(C(F)(F)F)c(Cl)c1)C(=O)O; X101 = CN([C@@H](CCc1cscn1)C(=O)[*:2])[*:1]; NMedβ3hAla = C[C@H](CC(=O)[*:2])N(C)[*:1]; NMeGly(cPent) = CN[C@H](C(=O)O)C1CCCC1; NMehCha = CN[C@@H](CCC1CCCCC1)C(=O)O; NMeCha = CN[C@@H](CC1CCCCC1)C(=O)O; ξPro(4,4-F2) = O=C(O)C1CC(F)(F)CN1; NMeChg = CN[C@H](C(=O)O)C1CCCCC1; N(CH2CH2)2CF2 = FC1(F)CCN(*)CC1; NMeD = CN[C@@H](CC(=O)O)C(=O)O; NMeL = CN[C@@H](CC(C)C)C(=O)O; Cba = N[C@@H](CC1CCC1)C(=O)O; NMeV = CN[C@H](C(=O)O)C(C)C; Ac7c = NC1(C(=O)O)CCCCCC1; NMeA = CN[C@@H](C)C(=O)O; Piperidide = C1CCN(*)CC1; Pyrrolidide = C1CCN(*)C1; Ac5c = NC1(C(=O)O)CCCC1; ξAze = O=C(O)C1CCN1; ξP = O=C(O)C1CCCN1; Sar = CNCC(=O)O

Sequence of GTPase KRas (G12D) and Son of Sevenless Homolog 1 (SOS) (P01116 whole entry G12D): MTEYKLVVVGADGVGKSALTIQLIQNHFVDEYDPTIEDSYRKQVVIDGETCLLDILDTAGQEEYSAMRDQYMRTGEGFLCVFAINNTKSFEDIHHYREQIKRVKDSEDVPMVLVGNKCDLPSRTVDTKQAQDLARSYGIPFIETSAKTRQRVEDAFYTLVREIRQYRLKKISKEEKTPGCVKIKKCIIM
Sequence of GTPase KRas (G12D) and Son of Sevenless Homolog 1 (SOS) (Q07889 whole entry, further chain): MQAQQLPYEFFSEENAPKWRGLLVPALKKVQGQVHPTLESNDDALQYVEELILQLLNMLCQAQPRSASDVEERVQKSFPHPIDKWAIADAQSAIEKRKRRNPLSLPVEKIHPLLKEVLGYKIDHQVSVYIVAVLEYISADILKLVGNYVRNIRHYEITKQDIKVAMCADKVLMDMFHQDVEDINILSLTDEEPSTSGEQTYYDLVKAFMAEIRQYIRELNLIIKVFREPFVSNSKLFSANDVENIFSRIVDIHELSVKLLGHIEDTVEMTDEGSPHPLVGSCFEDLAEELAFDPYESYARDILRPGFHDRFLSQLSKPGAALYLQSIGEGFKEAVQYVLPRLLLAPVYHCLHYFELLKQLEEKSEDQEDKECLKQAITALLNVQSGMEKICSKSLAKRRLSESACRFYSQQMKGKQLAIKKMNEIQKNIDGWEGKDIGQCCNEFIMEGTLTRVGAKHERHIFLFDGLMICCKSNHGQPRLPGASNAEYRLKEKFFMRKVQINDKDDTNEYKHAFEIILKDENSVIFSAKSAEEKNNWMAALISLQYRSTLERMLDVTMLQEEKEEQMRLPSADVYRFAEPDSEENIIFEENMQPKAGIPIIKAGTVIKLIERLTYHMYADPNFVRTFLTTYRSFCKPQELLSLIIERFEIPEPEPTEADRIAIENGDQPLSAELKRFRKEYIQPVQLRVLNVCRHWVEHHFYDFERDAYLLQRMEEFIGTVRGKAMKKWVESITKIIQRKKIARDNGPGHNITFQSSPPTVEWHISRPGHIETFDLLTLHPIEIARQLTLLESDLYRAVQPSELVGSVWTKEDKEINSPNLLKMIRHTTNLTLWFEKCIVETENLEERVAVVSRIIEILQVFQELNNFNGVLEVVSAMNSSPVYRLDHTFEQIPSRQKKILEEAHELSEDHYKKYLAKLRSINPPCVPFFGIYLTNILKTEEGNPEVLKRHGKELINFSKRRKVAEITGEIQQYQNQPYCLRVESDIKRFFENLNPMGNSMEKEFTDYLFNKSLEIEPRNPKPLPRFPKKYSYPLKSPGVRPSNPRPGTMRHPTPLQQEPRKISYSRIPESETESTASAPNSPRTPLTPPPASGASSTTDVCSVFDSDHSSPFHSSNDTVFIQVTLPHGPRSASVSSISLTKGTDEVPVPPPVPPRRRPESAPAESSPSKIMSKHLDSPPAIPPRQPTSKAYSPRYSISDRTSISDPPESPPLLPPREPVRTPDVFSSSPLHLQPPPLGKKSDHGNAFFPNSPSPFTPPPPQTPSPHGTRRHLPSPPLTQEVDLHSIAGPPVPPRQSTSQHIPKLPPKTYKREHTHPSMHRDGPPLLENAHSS

Molecule `CC[C@H](C)[C@@H]1NC(=O)[C@H](CC(C)C)N(C)C(=O)C[C@@H](C(=O)N2CCCC2)N(C)C(=O)[C@H](C2CCCC2)N(C)C(=O)C2(CCCC2)NC(=O)[C@H](CC(=O)N2CCC(F)(F)CC2)N(C)C(=O)[C@H](CCc2ccc(C(F)(F)F)c(Cl)c2)NC(=O)CN(C)C(=O)[C@H](CCC2CCCCC2)N(C)C(=O)C2CCN2C(=O)[C@H](C)N(C)C1=O` (some centres undefined) [US20240148821, Compound 26] ([NMeL]I[NMeA][ξAze][NMehCha][Sar][hPhe(3-Cl-4-CF3)][NMeD](N(CH2CH2)2CF2)[Ac5c][NMeGly(cPent)][NMeD]-Pyrrolidide; lactam N-11) yielded an IC50 of 4.3 nM.
The result for `CC(C)C[C@H]1C(=O)N[C@@H](C2CC2)C(=O)N(C)CC(=O)N(C)CC(=O)N(C)[C@@H](CCC2CCCCC2)C(=O)N(C)CC(=O)N[C@@H](CCc2ccc(C(F)(F)F)c(Cl)c2)C(=O)N2CCCC2C(=O)NC2(CCCC2)C(=O)N(C)[C@@H](C(C)C)C(=O)N[C@H](C)CC(=O)N1C` (some centres undefined) [US20240148821, Compound 101] reads 160 nM.
As for `CC[C@H](C)[C@@H]1NC(=O)[C@H](CC(C)C)N(C)C(=O)C[C@@H](C)N(C)C(=O)[C@H](C2CCCC2)N(C)C(=O)C2(CCCC2)NC(=O)C2CC(F)(F)CN2C(=O)[C@H](CCc2ccc(C(F)(F)F)c(Cl)c2)NC(=O)CN(C)C(=O)[C@H](CCC2CCCCC2)N(C)C(=O)CN(C)C(=O)CN(C)C1=O` (some centres undefined) [US20240148821, Compound 107] (cyclo([Ac5c][NMeGly(cPent)][NMedβ3hAla][NMeL]I[Sar][Sar][NMehCha][Sar][hPhe(3-Cl-4-CF3)][ξPro(4,4-F2)])), the figure is 4 nM; as for `CCCC[C@@H]1NC(=O)[C@H](Cc2cccc(I)c2)NC(=O)CN(CC)C(=O)[C@H](Cc2ccc(Cl)cc2)N(CC)C(=O)CN(CC)C(=O)CN(CC)C(=O)[C@H]([C@@H](C)CC)NC(=O)[C@H](CC(C)C)N(CC)C(=O)CC(C(=O)N2CCCCC2)N(CC)C(=O)[C@H](CC(C)C)NC(=O)[C@H](Cc2ccccc2OC(F)(F)F)N(CC)C1=O` (some centres undefined) [US20240148821, Compound 111], 100 nM; as for `CC[C@H](C)[C@@H]1NC(=O)[C@H](CC(C)C)N(C)C(=O)C[C@@H](C)NC(=O)[C@H](CC(C)C)N(C)C(=O)C(C)(C)NC(=O)[C@H](CC(C)C)N(C)C(=O)[C@H](CCc2cc(F)c(C(F)(F)F)c(F)c2)NC(=O)CN(C)C(=O)[C@H](C(=O)CC2CCCCC2)N(C)C(=O)CN(C)C(=O)CN(C)C1=O` [US20240148821, Compound 119], 39 nM.
The result for `CC[C@H](C)[C@@H]1NC(=O)[C@H](CCC2CCC2)N(C)C(=O)C[C@@H](C)NC(=O)[C@H](C(C)C)N(C)C(=O)C2(CCCC2)NC(=O)C2CCCN2C(=O)[C@H](CCc2ccc(C(F)(F)F)c(Cl)c2)NC(=O)CN(C)C(=O)[C@H](CC2CCCCC2)N(C)C(=O)CN(C)C(=O)CN(C)C1=O` (some centres undefined) [US20240148821, Compound 230] reads 39 nM.
For `C#CCC[C@H]1C(=O)N[C@@H]([C@@H](C)CC)C(=O)N(C)CC(=O)N(C)CC(=O)N(C)[C@@H](CCc2ccc(I)cc2)C(=O)N(C)CC(=O)N[C@@H](CCc2ccc(C(F)(F)F)c(Cl)c2)C(=O)N2CCCC2C(=O)NC2(CCCC2)C(=O)N(C)[C@@H](C2CCCCC2)C(=O)N[C@H](C)CC(=O)N1C` (some centres undefined) [US20240148821, Compound 300], the IC50 stood at 9.5 nM.
The result for `CC(C)C[C@H]1C(=O)N[C@@H](CC2CCC2)C(=O)N(C)CC(=O)N(C)CC(=O)N(C)[C@@H](CC2CCCCC2)C(=O)N(C)CC(=O)N[C@@H](CCc2ccc(C(F)(F)F)c(Cl)c2)C(=O)N2CCCC2C(=O)NC2(CCCCCC2)C(=O)N(C)[C@@H](C(C)C)C(=O)N(C)[C@H](C(=O)N2CCCCC2)CC(=O)N1C` (some centres undefined) [US20240148821, Compound 451] ([NMeL][Cba][Sar][Sar][NMeCha][Sar][hPhe(3-Cl-4-CF3)][ξP][Ac7c][NMeV][NMeD]-Piperidide; lactam N-11) reads 10 nM.
As for `CC[C@H](C)[C@@H]1NC(=O)[C@H](CC(C)C)N(C)C(=O)C[C@@H](C(=O)N2CCCCC2)N(C)C(=O)[C@H](C2CCCCC2)N(C)C(=O)C2(CCCC2)NC(=O)[C@H](CCc2cscn2)N(C)C(=O)[C@H](CCc2ccc(C(F)(F)F)c(Cl)c2)NC(=O)CN(C)C(=O)[C@H](CC2CCCCC2)N(C)C(=O)CN(C)C(=O)CN(C)C1=O` [US20240148821, Compound 500] ([NMeL]I[Sar][Sar][NMeCha][Sar][hPhe(3-Cl-4-CF3)][X101][Ac5c][NMeChg][NMeD]-Piperidide; lactam N-11), the figure is 4.8 nM.
